Laboratory results: publication PMC10610115, “Identification of Potential JNK3 Inhibitors: A Combined Approach Using Molecular Docking and Deep Learning-Based Virtual Screening” (Pharmaceuticals, 2023)

Target: T1, JNK3 (c-Jun N-terminal kinase 3) (Homo sapiens, UniProt P53779)
T1 construct: gene MAPK10
Experiment: HTRF-type kinase assay (Cryptate/XL665), dose response
Type: biochemical

T1 sequence (P53779 whole entry): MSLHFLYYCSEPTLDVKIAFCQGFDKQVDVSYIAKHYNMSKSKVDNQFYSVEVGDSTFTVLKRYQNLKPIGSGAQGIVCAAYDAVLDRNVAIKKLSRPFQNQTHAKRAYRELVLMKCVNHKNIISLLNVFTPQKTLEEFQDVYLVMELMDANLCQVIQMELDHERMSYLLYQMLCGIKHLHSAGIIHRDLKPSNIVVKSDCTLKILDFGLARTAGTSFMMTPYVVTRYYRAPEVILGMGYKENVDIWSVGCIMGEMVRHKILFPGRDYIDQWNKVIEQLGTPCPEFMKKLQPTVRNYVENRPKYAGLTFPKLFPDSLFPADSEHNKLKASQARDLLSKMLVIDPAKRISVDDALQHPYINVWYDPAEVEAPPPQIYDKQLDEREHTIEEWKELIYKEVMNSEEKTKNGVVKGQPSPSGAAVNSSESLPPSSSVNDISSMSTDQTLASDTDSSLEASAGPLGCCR

SMILES: CCc1nc(-c2cccc(C)c2)c(-c2ccnc(NC(=O)c3ccccc3)c2)s1 [compound 6, N-(4-(2-ethyl-4-(m-tolyl)thiazol-5-yl)pyridin-2-yl)benzamide]
- IC50: 130 nM
